19 compounds from PubChem BioAssay AID192 (DTP/NCI, 2004) can be followed below.

The structures appear in SMILES notation. Several values for one entry are separate records, joined by “and”; a condition that tells them apart may be missing. Equal values may be shown once. Inconclusive results and toxic doses are left out. Square brackets hold non-standard residues; d marks the D form. Peptide text beside a SMILES is read from it. * marks the point of attachment. Nle = CCCC[CH](N)C(=O)O; Cbz = O=C(OCc1ccccc1)*

The test has as its system BDF1 mice, B16 melanoma ip, median survival T/C. The experiment in a line: NCI In Vivo Anticancer Drug Screen. Data for tumor model B16 Melanoma (intraperitoneal) in B6D2F1 (BDF1) mice. Particulars: endpoint: median survival time, higher = longer survival. An outline of the steps:
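Vehicle-treated animals serve as the reference (C); treated animals (T) are scored for survival or tumor size after tumor transplantation.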

Where [1] appears, read: dose: 100.0 mg/kg/injection, schedule: Q04DX003 (ip), vehicle: Klucel (hydroxypropylcellulose) (HPC).
Setting [2] is: dose: 200.0 mg/kg/injection, schedule: Q04DX003 (ip), vehicle: Klucel (hydroxypropylcellulose) (HPC).
Where [3] appears, read: dose: 400.0 mg/kg/injection, schedule: Q01DX009 (ip), vehicle: Klucel (hydroxypropylcellulose) (HPC).
[4] abbreviates: dose: 50.0 mg/kg/injection, schedule: Q01DX009 (ip), vehicle: saline with Tween-80.
Where [5] appears, read: dose: 50.0 mg/kg/injection, schedule: Q01DX009 (ip), vehicle: Klucel (hydroxypropylcellulose) (HPC).
Setting [6] is: dose: 100.0 mg/kg/injection, schedule: Q01DX009 (ip), vehicle: Klucel (hydroxypropylcellulose) (HPC).
[7] abbreviates: dose: 200.0 mg/kg/injection, schedule: Q01DX009 (ip), vehicle: Klucel (hydroxypropylcellulose) (HPC).
[8] abbreviates: dose: 100.0 mg/kg/injection, schedule: Q01DX009 (ip), vehicle: saline with Tween-80.
The mark [9] stands for this setting: dose: 25.0 mg/kg/injection, schedule: Q01DX009 (ip), vehicle: saline.

As to `C[n+]1c2ccccc2c(Nc2ccc(NS(=O)(=O)CCCCN=C(N)N)cc2)c2ccc(N)cc21`, the T/C reads like this: (dose: 0.75 mg/kg/injection, schedule: Q01DX009 (ip), vehicle: water) 114 % of control; (dose: 3.0 mg/kg/injection, schedule: Q01DX009 (ip), vehicle: Klucel (hydroxypropylcellulose) (HPC)) 170 % of control; (dose: 3.0 mg/kg/injection, schedule: Q01DX009 (ip), vehicle: water) 171 % of control; (dose: 6.0 mg/kg/injection, schedule: Q01DX009 (ip), vehicle: Klucel (hydroxypropylcellulose) (HPC)) 159 % of control; (dose: 6.0 mg/kg/injection, schedule: Q01DX009 (ip), vehicle: water) 168 % of control and 176 % of control; (dose: 12.0 mg/kg/injection, schedule: Q01DX009 (ip), vehicle: water) 184 % of control and 188 % of control. The T/C is 151 % of control (dose: 12.5 mg/kg/injection, schedule: Q04DX003 (ip), vehicle: water) and 171 % of control (dose: 25.0 mg/kg/injection, schedule: Q04DX003 (ip), vehicle: water).

Turning to `CCCCCCC1CCC(N)CC1` (configuration not stated), the T/C (dose: 12.5 mg/kg/injection, schedule: Q01DX009 (ip), vehicle: Klucel (hydroxypropylcellulose) (HPC)) is 86 % of control.

As for `C=C(C)C(=O)OC1CCC2(C)C(CCC3C2CCC2(C)C(c4ccc(=O)oc4)CC4OC432)C1` (configuration not stated), the T/C is 100 % of control (dose: 1.25 mg/kg/injection, schedule: Q01DX009 (ip), vehicle: saline with Tween-80); 94 % of control (dose: 2.5 mg/kg/injection, schedule: Q01DX009 (ip), vehicle: saline with Tween-80); 96 % of control (dose: 5.0 mg/kg/injection, schedule: Q01DX009 (ip), vehicle: saline with Tween-80); 107 % of control (dose: 10.0 mg/kg/injection, schedule: Q01DX009 (ip), vehicle: saline with Tween-80); 102 % of control (dose: 20.0 mg/kg/injection, schedule: Q01DX009 (ip), vehicle: saline with Tween-80).

With `Cc1ccc(S(=O)(=O)N2CCC(O)(c3ccccc3)CC2)cc1`, the T/C runs as follows: (dose: 20.0 mg/kg/injection, schedule: Q01DX009 (ip), vehicle: Klucel (hydroxypropylcellulose) (HPC)) 87 % of control; under setting [1], 95 % of control; under setting [2], 91 % of control; under setting [3], 119 % of control; (dose: 400.0 mg/kg/injection, schedule: Q04DX003 (ip), vehicle: Klucel (hydroxypropylcellulose) (HPC)) 97 % of control.

Regarding `O=C(Nc1ccccc1)Oc1ccc(OCc2ccccc2)cc1`, the T/C (dose: 12.5 mg/kg/injection, schedule: Q01DX009 (ip), vehicle: saline with Tween-80) is 96 % of control; the T/C (dose: 25.0 mg/kg/injection, schedule: Q01DX009 (ip), vehicle: saline with Tween-80) was 93 % of control; the T/C under setting [4] was 92 % of control.

On to `Oc1ccccc1C=NCC[N-]CCN=Cc1ccccc1O.[Cu+]`, for which the T/C runs as follows: (dose: 0.39 mg/kg/injection, schedule: Q01DX009 (ip), vehicle: Klucel (hydroxypropylcellulose) (HPC)) 97 % of control; (dose: 0.78 mg/kg/injection, schedule: Q01DX009 (ip), vehicle: Klucel (hydroxypropylcellulose) (HPC)) 96 % of control; (dose: 1.56 mg/kg/injection, schedule: Q01DX009 (ip), vehicle: Klucel (hydroxypropylcellulose) (HPC)) 90 % of control.

Turning to `CSc1ncnc2nc[nH]c12`, the T/C runs as follows: under setting [5], 104 % of control; under setting [6], 100 % of control; under setting [7], 102 % of control; under setting [3], 88 % of control.

With `O=C(Oc1ccc(-c2ccc(Br)cc2)cc1)c1ccco1`, under setting [4], the T/C was 88 % of control.

On to `COc1cccc2c1C(=O)c1c(O)c3c(c(O)c1C2=O)C[C@@](O)(C(=O)COC(=O)Cc1ccccc1)C[C@@H]3OC1CC(N)C(O)C(C)O1` (some centres not stated), for which the T/C runs as follows: (dose: 0.5 mg/kg/injection, schedule: Q01DX009 (ip), vehicle: saline with Tween-80) 151 % of control and 186 % of control; (dose: 1.0 mg/kg/injection, schedule: Q01DX009 (ip), vehicle: saline with Tween-80) 165 % of control and 186 % of control; (dose: 2.0 mg/kg/injection, schedule: Q01DX009 (ip), vehicle: saline with Tween-80) 172 % of control and 232 % of control.

In the case of `O=S(=O)(O)SCCNCCCCCC1CCCCC1`, the T/C is 90 % of control (dose: 0.75 mg/kg/injection, schedule: Q01DX009 (ip), vehicle: saline with Tween-80); 95 % of control (dose: 1.5 mg/kg/injection, schedule: Q01DX009 (ip), vehicle: saline with Tween-80); 93 % of control (dose: 3.0 mg/kg/injection, schedule: Q01DX009 (ip), vehicle: saline with Tween-80); 104 % of control (dose: 6.0 mg/kg/injection, schedule: Q01DX009 (ip), vehicle: saline with Tween-80); 100 % of control (dose: 12.0 mg/kg/injection, schedule: Q01DX009 (ip), vehicle: saline with Tween-80).

For the compound `CCCCC(NC(=O)C(Cc1ccccc1)NC(=O)OCc1ccccc1)C(=O)O` (stereo not drawn) (Cbz-Phe-[Nle]-OH; configuration not given here), the T/C under setting [4] was 92 % of control and the T/C under setting [8] is 100 % of control.

In the case of `O=C1C(=O)c2ccccc2C(O)=C1CC=C(Cl)Cl`, the T/C is, setting by setting: (dose: 6.2 mg/kg/injection, schedule: Q01DX009 (ip), vehicle: water) 93 % of control; (dose: 12.5 mg/kg/injection, schedule: Q01DX009 (ip), vehicle: saline) 100 % of control; (dose: 12.5 mg/kg/injection, schedule: Q01DX009 (ip), vehicle: water) 93 % of control; under setting [9], 102 % of control; (dose: 25.0 mg/kg/injection, schedule: Q01DX009 (ip), vehicle: water) 100 % of control; (dose: 25.0 mg/kg/injection, schedule: Q01DX009 (oral), vehicle: water) 103 % of control and 106 % of control. Moreover, the T/C reads like this: (dose: 50.0 mg/kg/injection, schedule: Q01DX009 (ip), vehicle: saline) 100 % of control; (dose: 50.0 mg/kg/injection, schedule: Q01DX009 (ip), vehicle: water) 100 % of control; (dose: 50.0 mg/kg/injection, schedule: Q01DX009 (oral), vehicle: saline) 105 % of control; (dose: 50.0 mg/kg/injection, schedule: Q01DX009 (oral), vehicle: water) 106 % of control; (dose: 75.0 mg/kg/injection, schedule: Q01DX009 (oral), vehicle: water) 110 % of control; (dose: 100.0 mg/kg/injection, schedule: Q01DX009 (oral), vehicle: saline) 116 % of control. Also, the T/C is, setting by setting: (dose: 100.0 mg/kg/injection, schedule: Q01DX009 (oral), vehicle: water) 106 % of control and 113 % of control; (dose: 200.0 mg/kg/injection, schedule: Q01DX009 (oral), vehicle: water) 106 % of control.

Turning to `CCc1ccc(C(C)(C)C)cc1`, the T/C (dose: 25.0 mg/kg/injection, schedule: Q04DX003 (ip), vehicle: Klucel (hydroxypropylcellulose) (HPC)) is 103 % of control; the T/C (dose: 50.0 mg/kg/injection, schedule: Q04DX003 (ip), vehicle: Klucel (hydroxypropylcellulose) (HPC)) is 93 % of control; the T/C under setting [1] is 101 % of control; the T/C under setting [2] was 100 % of control.

Consider `CCCCCCCCCCCCCCCCS(=O)(=O)c1ccc(NN)cc1`, for which the T/C reads like this: under setting [5], 97 % of control; under setting [7], 86 % of control and 88 % of control.

Take `Cc1ccc(Nc2ccc([N+](=O)[O-])cc2[N+](=O)[O-])cc1C`: the T/C is, setting by setting: under setting [6], 98 % of control; under setting [7], 97 % of control; under setting [3], 96 % of control.

Regarding `Cc1ccc(NC(=O)Nc2ccc(Cl)c(Cl)c2)c(C)c1`, the T/C runs as follows: (dose: 25.0 mg/kg/injection, schedule: Q01DX009 (ip), vehicle: Klucel (hydroxypropylcellulose) (HPC)) 109 % of control; under setting [5], 103 % of control; under setting [6], 92 % of control.

Regarding `CN(CCCOS(C)(=O)=O)CCCOS(C)(=O)=O`, the T/C runs as follows: (dose: 6.25 mg/kg/injection, schedule: Q01DX009 (ip), vehicle: saline) 115 % of control; (dose: 10.0 mg/kg/injection, schedule: Q01DX009 (ip), vehicle: saline) 185 % of control; (dose: 20.0 mg/kg/injection, schedule: Q01DX009 (ip), vehicle: saline) 150 % of control; under setting [9], 181 % of control; (dose: 40.0 mg/kg/injection, schedule: Q01DX009 (ip), vehicle: saline) 285 % of control.

As to `CC(C)COC(=O)c1ccc(NC(=O)Nc2ccccc2)cc1`, the T/C reads like this: under setting [8], 93 % of control; (dose: 200.0 mg/kg/injection, schedule: Q01DX009 (ip), vehicle: saline with Tween-80) 102 % of control; (dose: 400.0 mg/kg/injection, schedule: Q01DX009 (ip), vehicle: saline with Tween-80) 97 % of control.

For the compound `CC(=O)Oc1ccc(C)cc1`, the T/C was 103 % of control under setting [5], 112 % of control under setting [6] and 103 % of control under setting [7].
